PMC8815882, “Screening the pandemic response box identified benzimidazole carbamates, Olorofim and ravuconazole as promising drug candidates for the treatment of eumycetoma” (PLoS Neglected Tropical Diseases, 2022)
Where two headings read alike, the source gives them in different places.

System: M. mycetomatis genome strain MM55
Assay: CLSI M38-A2 based in vitro susceptibility screening (XTT or resazurin), growth at fixed concentration
Format: cell-based, Madurella mycetomatis
Conditions: Madurella mycetomatis; for Percent fungal survival at 100 µM: read-out: Percentage survival at 100um, 100 uM A (second replicate column)
[1] = mean of replicates, read-out: Percentage survival at 25um, 25 uM mean
[2] = replicate A, read-out: Percentage survival at 25um, 25 um A
[3] = replicate B, read-out: Percentage survival at 25um, 25 uM B
[4] = replicate C, read-out: Percentage survival at 25um, 25 uM C
[5] = mean of replicates, read-out: Percentage survival at 100um, 100 uM mean
[6] = replicate 1, read-out: Percentage survival at 100um, 100 uM A
[7] = replicate 2, read-out: Percentage survival at 100um, 100 uM A
[8] = replicate 3, read-out: Percentage survival at 100um, 100 uM A
[9] = mean of replicates, MM55, read-out: Percentage survival at 25um, 25 uM mean
[10] = replicate A, MM55, read-out: Percentage survival at 25um, 25 um A
[11] = replicate B, MM55, read-out: Percentage survival at 25um, 25 uM B
[12] = replicate C, MM55, read-out: Percentage survival at 25um, 25 uM C
[13] = mean of replicates, MM55, read-out: Percentage survival at 100um, 100 uM mean
[14] = replicate 1, MM55, read-out: Percentage survival at 100um, 100 uM A
[15] = replicate 2, MM55, read-out: Percentage survival at 100um, 100 uM A
[16] = replicate 3, MM55, read-out: Percentage survival at 100um, 100 uM A
[17] = mean of three replicates, read-out: Percentage survival at 25um, 25 uM mean
[18] = mean of three replicates, read-out: Percentage survival at 100um, 100 uM mean
[19] = replicate 1, read-out: Percentage survival at 100um, 100 uM A (first replicate column)
[20] = replicate 3, read-out: Percentage survival at 100um, 100 uM A (third replicate column)

SMILES	activity at 25 µM [1] [%]	activity at 25 µM [2] [%]	activity at 25 µM [3] [%]	activity at 25 µM [4] [%]	activity at 100 µM [5] [%]	activity at 100 µM [6] [%]	activity at 100 µM [7] [%]	activity at 100 µM [8] [%]	activity at 25 µM [9] [%]	activity at 25 µM [10] [%]	activity at 25 µM [11] [%]	activity at 25 µM [12] [%]	activity at 100 µM [13] [%]	activity at 100 µM [14] [%]	activity at 100 µM [15] [%]	activity at 100 µM [16] [%]	activity at 25 µM [17] [%]	activity at 100 µM [18] [%]	further results
CC(C)/N=c1\cc2n(-c3ccc(Cl)cc3)c3ccccc3nc-2cc1Nc1ccc(Cl)cc1 [MMV687800]	–	–	–	–	–	–	–	–	–	–	–	–	–	–	–	–	–	–	activity at 25 µM (mean of three, M. mycetomatis MM55, read-out: Percentage survival at 25um, 25 uM mean): 71%; activity at 25 µM (replicate A, M. mycetomatis MM55, read-out: Percentage survival at 25um, 25 um A): 77.2%; activity at 25 µM (replicate B, M. mycetomatis MM55, read-out: Percentage survival at 25um, 25 uM B): 68.8%; activity at 25 µM (replicate C, M. mycetomatis MM55, read-out: Percentage survival at 25um, 25 uM C): 67.2%; activity at 100 µM (mean of three, M. mycetomatis MM55, read-out: Percentage survival at 100um, 100 uM mean): 71.4%; activity at 100 µM (replicate 1, M. mycetomatis MM55, read-out: Percentage survival at 100um, 100 uM A (first replicate column)): 65.1%; Percent fungal survival at 100 µM (replicate 2, M. mycetomatis MM55): 75.2%; activity at 100 µM (replicate 3, M. mycetomatis MM55, read-out: Percentage survival at 100um, 100 uM A (third replicate column)): 73.9%
CC[C@@H](CO)NCCN[C@@H](CC)CO [MMV687801]	87.9	86.9	87.9	88.8	85.7	96.9	79.4	80.8	–	–	–	–	–	–	–	–	–	–	–
O=[N+]([O-])c1cn2c(n1)OC[C@@H](OCc1ccc(OC(F)(F)F)cc1)C2 [MMV688755]	85.3	91.8	92.4	71.7	85.9	75	105	77.3	–	–	–	–	–	–	–	–	–	–	–
CC(=O)NC[C@H]1CN(c2ccc(N3CCSCC3)c(F)c2)C(=O)O1 [MMV688756]	96.1	94.4	99.9	94.2	92.4	100	85.2	91.6	–	–	–	–	–	–	–	–	–	–	–
CC(=O)Oc1ccccc1C(=O)Nc1ncc([N+](=O)[O-])s1 [MMV688991]	–	–	–	–	–	–	–	–	103	90	88.2	131	68	76.1	57.8	70.1	–	–	–
COc1nc2ccc(Br)cc2cc1[C@@H](c1ccccc1)[C@@](O)(CCN(C)C)c1cccc2ccccc12 [MMV689758]	–	102	87.7	104	–	–	–	–	–	–	–	–	–	–	–	–	98.1	84.6	activity at 100 µM [19]: 80.8%; Percent fungal survival at 100 µM (replicate 2): 75.9%; activity at 100 µM [20]: 97.2%
Cc1cc(CCCOc2c(C)cc(-c3noc(C(F)(F)F)n3)cc2C)on1 [MMV690467]	–	–	–	–	–	–	–	–	115	152	84.5	108	79.3	70.9	103	64.3	–	–	–
COc1ccccc1CN[C@H]1C2CCN(CC2)[C@H]1C(c1ccccc1)c1ccccc1 [MMV690480]	–	61.4	107	81.2	–	–	–	–	–	–	–	–	–	–	–	–	83.2	27.7	activity at 100 µM (first replicate column, read-out: Percentage survival at 100um, 100 uM A): -1.66%; activity at 100 µM (second replicate column, read-out: Percentage survival at 100um, 100 uM A): 2.79%; activity at 100 µM (third replicate column, read-out: Percentage survival at 100um, 100 uM A): 82%
CCOCc1nc2c(N)nc3ccccc3c2n1CC(C)(C)O [MMV690547]	–	95.3	111	87.7	–	–	–	–	–	–	–	–	–	–	–	–	98	90.4	activity at 100 µM [19]: 97%; Percent fungal survival at 100 µM (replicate 2): 86.2%; activity at 100 µM [20]: 87.9%
FC(F)(F)c1cc(C(F)(F)F)c2ccc3nc(-c4nnco4)cn3c2n1 [MMV690555]	–	–	–	–	–	–	–	–	91.6	100	96.8	77.9	81.1	87	83.1	73.1	–	–	–
